The kinase profiling compilation of Christmann-Franck et al. (2016)

How the values were obtained:
Assay in all cases: KINOMEscan competition binding
Conditions in all cases: compound 10.0 µM
MAP2K2 (human) = MAP2K2 (human) (UniProt P36507)
MYLK2 (human) = MYLK2 (human) (UniProt Q9H1R3)
TNK2 (human) = TNK2 (human) (UniProt Q07912)
RIOK3 (human) = RIOK3 (human) (UniProt O14730)
NTRK2 (human) = NTRK2 (human) (UniProt Q16620)
MKNK1 (human) = MKNK1 (human) (UniProt Q9BUB5)
[1] = target: TYK2 JH1 catalytic (human) (UniProt P29597)
EPHB2 (human) = EPHB2 (human) (UniProt P29323)
WEE1 (human) = WEE1 (human) (UniProt P30291)
WEE1 (human), sequence (P30291 whole entry, looked up): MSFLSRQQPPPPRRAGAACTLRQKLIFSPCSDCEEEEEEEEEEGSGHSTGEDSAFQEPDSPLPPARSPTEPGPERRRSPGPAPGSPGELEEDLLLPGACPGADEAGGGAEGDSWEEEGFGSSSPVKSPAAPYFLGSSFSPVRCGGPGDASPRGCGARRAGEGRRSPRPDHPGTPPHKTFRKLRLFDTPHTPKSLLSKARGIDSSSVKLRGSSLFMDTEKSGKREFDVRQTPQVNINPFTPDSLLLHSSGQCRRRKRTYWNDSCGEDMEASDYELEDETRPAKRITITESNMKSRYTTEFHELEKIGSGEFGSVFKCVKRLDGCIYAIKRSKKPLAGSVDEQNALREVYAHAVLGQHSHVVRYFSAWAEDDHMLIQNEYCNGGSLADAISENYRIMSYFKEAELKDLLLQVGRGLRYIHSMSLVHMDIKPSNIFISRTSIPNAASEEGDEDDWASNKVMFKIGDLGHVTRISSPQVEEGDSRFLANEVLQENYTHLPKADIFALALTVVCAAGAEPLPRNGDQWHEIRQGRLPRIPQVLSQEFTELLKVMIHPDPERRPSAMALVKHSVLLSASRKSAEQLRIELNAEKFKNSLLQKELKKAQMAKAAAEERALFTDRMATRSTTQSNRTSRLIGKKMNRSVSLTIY

CAMK2A (human) = CAMK2A (human) (UniProt Q9UQM7)
IKBKB (human) = IKBKB (human) (UniProt O14920)
SRPK1 (human) = SRPK1 (human) (UniProt Q96SB4)
CDK18 (human) = CDK18 (human) (UniProt Q07002)
RPS6KA2 KD1 (human) = RPS6KA2 KD1 (human) (UniProt Q15349)
CDK15 (human) = CDK15 (human) (UniProt Q96Q40)
MAPKAPK2 (human) = MAPKAPK2 (human) (UniProt P49137)
MAP3K10 (human) = MAP3K10 (human) (UniProt Q02779)
ACVRL1 (human) = ACVRL1 (human) (UniProt P37023)
MAPK4 (human) = MAPK4 (human) (UniProt P31152)
TTK (human) = TTK (human) (UniProt P33981)
CDK7 (human) = CDK7 (human) (UniProt P50613)
CDK7 (human), sequence (P50613 whole entry, looked up): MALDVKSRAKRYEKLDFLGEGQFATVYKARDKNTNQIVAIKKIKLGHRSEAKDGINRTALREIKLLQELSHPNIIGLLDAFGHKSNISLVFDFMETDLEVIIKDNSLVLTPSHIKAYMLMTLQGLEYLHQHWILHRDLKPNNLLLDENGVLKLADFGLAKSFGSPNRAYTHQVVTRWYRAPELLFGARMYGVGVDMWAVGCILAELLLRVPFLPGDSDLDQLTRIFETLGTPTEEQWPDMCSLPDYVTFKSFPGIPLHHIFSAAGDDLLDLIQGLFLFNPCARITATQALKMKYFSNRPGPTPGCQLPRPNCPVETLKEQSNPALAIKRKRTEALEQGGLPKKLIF

STK33 (human) = STK33 (human) (UniProt Q9BYT3)
STK17A (human) = STK17A (human) (UniProt Q9UEE5)
STK17A (human), sequence (Q9UEE5 whole entry, looked up): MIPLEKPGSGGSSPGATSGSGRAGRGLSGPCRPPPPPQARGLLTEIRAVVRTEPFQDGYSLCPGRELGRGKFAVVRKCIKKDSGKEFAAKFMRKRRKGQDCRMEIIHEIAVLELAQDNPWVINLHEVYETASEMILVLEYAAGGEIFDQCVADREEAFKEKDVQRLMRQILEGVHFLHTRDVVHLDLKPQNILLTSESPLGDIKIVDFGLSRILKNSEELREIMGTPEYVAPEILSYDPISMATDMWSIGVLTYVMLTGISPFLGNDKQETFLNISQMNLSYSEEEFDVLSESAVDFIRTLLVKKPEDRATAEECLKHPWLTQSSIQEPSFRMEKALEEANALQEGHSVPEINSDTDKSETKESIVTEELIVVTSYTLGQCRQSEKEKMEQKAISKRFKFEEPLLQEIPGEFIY

CHUK (human) = CHUK (human) (UniProt O15111)
RPS6KA1 KD2 (human) = RPS6KA1 KD2 (human) (UniProt Q15418)
BRSK1 (human) = BRSK1 (human) (UniProt Q8TDC3)
FYN (human) = FYN (human) (UniProt P06241)
MAPK9 (human) = MAPK9 (human) (UniProt P45984)
PRKACA (human) = PRKACA (human) (UniProt P17612)
CDC42BPG (human) = CDC42BPG (human) (UniProt Q6DT37)
CDC42BPG (human), sequence (Q6DT37 whole entry, looked up): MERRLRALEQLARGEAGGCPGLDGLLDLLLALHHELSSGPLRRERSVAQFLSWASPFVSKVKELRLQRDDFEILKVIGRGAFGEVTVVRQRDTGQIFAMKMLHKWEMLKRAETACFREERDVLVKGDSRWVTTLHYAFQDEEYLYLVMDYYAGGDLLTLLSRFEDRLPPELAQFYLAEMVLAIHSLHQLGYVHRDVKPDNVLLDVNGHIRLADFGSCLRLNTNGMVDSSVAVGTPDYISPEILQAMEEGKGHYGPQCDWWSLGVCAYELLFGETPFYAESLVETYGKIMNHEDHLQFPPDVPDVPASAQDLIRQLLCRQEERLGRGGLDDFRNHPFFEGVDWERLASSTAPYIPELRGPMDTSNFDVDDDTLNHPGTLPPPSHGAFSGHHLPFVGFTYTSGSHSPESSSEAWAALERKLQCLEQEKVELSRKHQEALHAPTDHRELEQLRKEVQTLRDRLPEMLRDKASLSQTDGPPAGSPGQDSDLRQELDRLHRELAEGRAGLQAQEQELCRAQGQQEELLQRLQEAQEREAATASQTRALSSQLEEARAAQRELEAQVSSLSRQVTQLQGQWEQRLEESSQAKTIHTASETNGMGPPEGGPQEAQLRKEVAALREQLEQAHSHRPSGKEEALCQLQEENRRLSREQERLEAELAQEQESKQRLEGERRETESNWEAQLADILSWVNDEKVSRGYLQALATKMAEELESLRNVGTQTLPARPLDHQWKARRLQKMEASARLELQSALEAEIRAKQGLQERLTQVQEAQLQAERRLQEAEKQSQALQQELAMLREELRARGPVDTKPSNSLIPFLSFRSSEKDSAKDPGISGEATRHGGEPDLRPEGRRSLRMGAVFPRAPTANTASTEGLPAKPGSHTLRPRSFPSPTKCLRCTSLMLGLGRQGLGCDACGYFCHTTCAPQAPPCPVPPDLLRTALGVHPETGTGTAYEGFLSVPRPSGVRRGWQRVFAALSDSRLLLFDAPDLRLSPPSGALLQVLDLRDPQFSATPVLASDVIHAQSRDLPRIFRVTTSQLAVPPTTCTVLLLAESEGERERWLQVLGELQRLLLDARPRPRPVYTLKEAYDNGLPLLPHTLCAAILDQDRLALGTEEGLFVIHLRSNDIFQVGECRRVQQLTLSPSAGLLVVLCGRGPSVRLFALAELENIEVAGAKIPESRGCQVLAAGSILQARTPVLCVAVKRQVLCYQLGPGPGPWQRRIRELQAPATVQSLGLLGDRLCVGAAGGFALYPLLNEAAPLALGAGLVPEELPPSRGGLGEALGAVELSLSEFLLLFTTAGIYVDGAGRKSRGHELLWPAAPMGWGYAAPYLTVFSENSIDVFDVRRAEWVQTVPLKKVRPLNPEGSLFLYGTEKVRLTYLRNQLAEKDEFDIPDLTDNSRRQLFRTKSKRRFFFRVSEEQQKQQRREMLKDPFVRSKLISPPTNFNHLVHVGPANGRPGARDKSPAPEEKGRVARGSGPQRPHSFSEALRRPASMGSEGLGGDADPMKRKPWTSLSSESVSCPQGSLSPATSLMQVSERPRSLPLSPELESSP

[2] = target: JAK1 JH1 catalytic (human) (UniProt P23458)
STK11 (human) = STK11 (human) (UniProt Q15831)
STK11 (human), sequence (Q15831 whole entry, looked up): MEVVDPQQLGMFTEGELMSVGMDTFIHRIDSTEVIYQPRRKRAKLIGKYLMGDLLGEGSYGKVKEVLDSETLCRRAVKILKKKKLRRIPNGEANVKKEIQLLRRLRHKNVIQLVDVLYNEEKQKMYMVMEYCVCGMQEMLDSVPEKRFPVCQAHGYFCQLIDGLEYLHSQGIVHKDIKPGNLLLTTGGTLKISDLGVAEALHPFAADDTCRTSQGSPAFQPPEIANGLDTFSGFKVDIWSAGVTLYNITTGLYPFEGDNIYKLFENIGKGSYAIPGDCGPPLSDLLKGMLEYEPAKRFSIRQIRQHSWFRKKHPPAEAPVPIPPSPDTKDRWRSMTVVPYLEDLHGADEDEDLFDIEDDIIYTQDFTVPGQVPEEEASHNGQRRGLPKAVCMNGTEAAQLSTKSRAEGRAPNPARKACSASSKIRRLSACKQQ

PRKD2 (human) = PRKD2 (human) (UniProt Q9BZL6)
PDGFRB (human) = PDGFRB (human) (UniProt P09619)
PDGFRB (human), sequence (P09619 whole entry, looked up): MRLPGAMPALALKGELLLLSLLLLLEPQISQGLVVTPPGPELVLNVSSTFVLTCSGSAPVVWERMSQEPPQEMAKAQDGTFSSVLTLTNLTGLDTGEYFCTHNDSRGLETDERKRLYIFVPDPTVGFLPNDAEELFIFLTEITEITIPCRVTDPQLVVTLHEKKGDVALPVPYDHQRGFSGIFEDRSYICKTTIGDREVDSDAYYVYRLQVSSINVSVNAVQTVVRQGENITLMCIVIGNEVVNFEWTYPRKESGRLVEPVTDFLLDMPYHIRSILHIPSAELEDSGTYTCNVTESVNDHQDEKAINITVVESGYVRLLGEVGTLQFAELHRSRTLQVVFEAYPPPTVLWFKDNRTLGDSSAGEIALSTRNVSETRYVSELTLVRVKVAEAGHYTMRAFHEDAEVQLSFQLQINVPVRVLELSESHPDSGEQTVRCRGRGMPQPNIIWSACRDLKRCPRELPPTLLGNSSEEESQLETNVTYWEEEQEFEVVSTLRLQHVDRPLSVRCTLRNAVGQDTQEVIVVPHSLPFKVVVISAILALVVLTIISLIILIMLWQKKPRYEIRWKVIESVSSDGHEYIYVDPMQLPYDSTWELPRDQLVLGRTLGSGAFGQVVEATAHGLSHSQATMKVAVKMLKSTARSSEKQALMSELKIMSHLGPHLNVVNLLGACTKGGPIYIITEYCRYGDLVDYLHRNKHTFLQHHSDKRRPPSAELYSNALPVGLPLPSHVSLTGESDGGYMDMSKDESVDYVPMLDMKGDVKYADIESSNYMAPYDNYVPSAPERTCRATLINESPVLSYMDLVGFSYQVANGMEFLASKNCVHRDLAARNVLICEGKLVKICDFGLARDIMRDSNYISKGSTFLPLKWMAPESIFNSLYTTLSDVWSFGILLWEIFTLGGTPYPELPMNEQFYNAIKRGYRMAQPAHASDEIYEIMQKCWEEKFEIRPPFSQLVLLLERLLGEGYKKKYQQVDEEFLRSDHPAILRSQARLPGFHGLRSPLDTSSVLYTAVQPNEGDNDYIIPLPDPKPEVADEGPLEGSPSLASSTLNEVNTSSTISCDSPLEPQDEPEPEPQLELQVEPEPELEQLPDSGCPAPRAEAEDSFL

TAOK3 (human) = TAOK3 (human) (UniProt Q9H2K8)
MAP3K11 (human) = MAP3K11 (human) (UniProt Q16584)
SGK110 (human) = SGK110 (human) (UniProt P0C264)
DCLK2 (human) = DCLK2 (human) (UniProt Q8N568)
PLK1 (human) = PLK1 (human) (UniProt P53350)
CSNK1G1 (human) = CSNK1G1 (human) (UniProt Q9HCP0)

MAP2K2 (human), sequence (P36507 whole entry, looked up): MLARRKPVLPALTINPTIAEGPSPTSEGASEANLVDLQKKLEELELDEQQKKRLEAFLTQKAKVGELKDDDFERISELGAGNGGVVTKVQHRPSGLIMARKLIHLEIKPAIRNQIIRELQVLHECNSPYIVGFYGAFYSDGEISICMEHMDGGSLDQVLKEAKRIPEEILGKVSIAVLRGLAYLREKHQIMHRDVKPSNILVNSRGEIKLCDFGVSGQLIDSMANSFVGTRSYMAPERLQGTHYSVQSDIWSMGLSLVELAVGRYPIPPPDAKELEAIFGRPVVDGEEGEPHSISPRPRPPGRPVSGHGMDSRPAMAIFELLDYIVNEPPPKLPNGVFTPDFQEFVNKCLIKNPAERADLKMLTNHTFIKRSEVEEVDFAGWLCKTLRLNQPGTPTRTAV

| Structure (SMILES) | kinase still bound, per cent of control (MAP2K2 (human)) | kinase still bound, per cent of control (MYLK2 (human)) | kinase still bound, per cent of control (TNK2 (human)) | kinase still bound, per cent of control (RIOK3 (human)) | kinase still bound, per cent of control (NTRK2 (human)) | kinase still bound, per cent of control (MKNK1 (human)) | kinase still bound, per cent of control [1] | kinase still bound, per cent of control (EPHB2 (human)) | kinase still bound, per cent of control (WEE1 (human)) | kinase still bound, per cent of control (CAMK2A (human)) | kinase still bound, per cent of control (IKBKB (human)) | kinase still bound, per cent of control (SRPK1 (human)) | kinase still bound, per cent of control (CDK18 (human)) | kinase still bound, per cent of control (RPS6KA2 KD1 (human)) | kinase still bound, per cent of control (CDK15 (human)) | kinase still bound, per cent of control (MAPKAPK2 (human)) | kinase still bound, per cent of control (MAP3K10 (human)) | kinase still bound, per cent of control (ACVRL1 (human)) | kinase still bound, per cent of control (MAPK4 (human)) | kinase still bound, per cent of control (TTK (human)) | further results |
| --- | --- | --- | --- | --- | --- | --- | --- | --- | --- | --- | --- | --- | --- | --- | --- | --- | --- | --- | --- | --- | --- |
| CC[C@@H]1C(=O)N(C)c2cnc(Nc3ccc(C(=O)NC4CCN(C)CC4)cc3OC)nc2N1C1CCCC1 | 100% | 100% | 100% | 100% | 100% | 100% | 100% | 100% | 100% | 26% | 100% | 100% | 100% | 100% | 100% | 100% | 100% | 100% | 100% | 6.3% | kinase still bound, per cent of control (CDK7 (human)): 100%; kinase still bound, per cent of control (STK33 (human)): 14%; kinase still bound, per cent of control (STK17A (human)): 100%; kinase still bound, per cent of control (CHUK (human)): 100%; kinase still bound, per cent of control (RPS6KA1 KD2 (human)): 21%; kinase still bound, per cent of control (BRSK1 (human)): 100%; kinase still bound, per cent of control (FYN (human)): 100%; kinase still bound, per cent of control (MAPK9 (human)): 100%; kinase still bound, per cent of control (PRKACA (human)): 100%; kinase still bound, per cent of control (CDC42BPG (human)): 100%; kinase still bound, per cent of control [2]: 100%; kinase still bound, per cent of control (STK11 (human)): 100%; kinase still bound, per cent of control (PRKD2 (human)): 16%; kinase still bound, per cent of control (PDGFRB (human)): 100%; kinase still bound, per cent of control (TAOK3 (human)): 100%; kinase still bound, per cent of control (MAP3K11 (human)): 100%; kinase still bound, per cent of control (SGK110 (human)): 100%; kinase still bound, per cent of control (DCLK2 (human)): 13% |
| CCOc1cc2ncc(C#N)c(Nc3ccc(OCc4ccccn4)c(Cl)c3)c2cc1NC(=O)/C=C/CN(C)C | 0.5% | 79% | 40% | 97% | 95% | 29% | 100% | 86% | 57% | 90% | 100% | 100% | 96% | 88% | 98% | 89% | 88% | 100% | 100% | 100% | kinase still bound, per cent of control (PLK1 (human)): 57%; kinase still bound, per cent of control (CDK7 (human)): 68%; kinase still bound, per cent of control (STK33 (human)): 42%; kinase still bound, per cent of control (STK17A (human)): 37%; kinase still bound, per cent of control (CHUK (human)): 81%; kinase still bound, per cent of control (RPS6KA1 KD2 (human)): 85%; kinase still bound, per cent of control (BRSK1 (human)): 95%; kinase still bound, per cent of control (FYN (human)): 84%; kinase still bound, per cent of control (MAPK9 (human)): 52%; kinase still bound, per cent of control (PRKACA (human)): 95%; kinase still bound, per cent of control (CDC42BPG (human)): 100%; kinase still bound, per cent of control [2]: 83%; kinase still bound, per cent of control (STK11 (human)): 94%; kinase still bound, per cent of control (PRKD2 (human)): 50%; kinase still bound, per cent of control (PDGFRB (human)): 69%; kinase still bound, per cent of control (TAOK3 (human)): 75%; kinase still bound, per cent of control (MAP3K11 (human)): 85%; kinase still bound, per cent of control (SGK110 (human)): 100%; kinase still bound, per cent of control (DCLK2 (human)): 100% |
| O=C(O)c1ccc(Nc2ncc3c(n2)-c2ccc(Cl)cc2C(c2c(F)cccc2F)=NC3)cc1 | 99% | 100% | 46% | 100% | 30% | 100% | 100% | 50% | 100% | 69% | 100% | 100% | 100% | 100% | 100% | 100% | 67% | 64% | 66% | 63% | kinase still bound, per cent of control (CSNK1G1 (human)): 37%; kinase still bound, per cent of control (PLK1 (human)): 100%; kinase still bound, per cent of control (CDK7 (human)): 77%; kinase still bound, per cent of control (STK33 (human)): 100%; kinase still bound, per cent of control (STK17A (human)): 1.9%; kinase still bound, per cent of control (CHUK (human)): 100%; kinase still bound, per cent of control (BRSK1 (human)): 100%; kinase still bound, per cent of control (FYN (human)): 17%; kinase still bound, per cent of control (MAPK9 (human)): 57%; kinase still bound, per cent of control (PRKACA (human)): 47%; kinase still bound, per cent of control (CDC42BPG (human)): 92%; kinase still bound, per cent of control [2]: 90%; kinase still bound, per cent of control (STK11 (human)): 92%; kinase still bound, per cent of control (PRKD2 (human)): 92%; kinase still bound, per cent of control (PDGFRB (human)): 34%; kinase still bound, per cent of control (TAOK3 (human)): 95%; kinase still bound, per cent of control (MAP3K11 (human)): 84%; kinase still bound, per cent of control (SGK110 (human)): 58%; kinase still bound, per cent of control (DCLK2 (human)): 94% |
